This note sets out measurements from patent US20120053053A1, “PYRIMIDINE DERIVATIVES AND THEIR USE AS HERBICIDES” (SYNGENTA CROP PROTECTION, LLC, priority 2009, published 2012).

Molecules are shown by their SMILES.

In series [1] the test system is Alopecurus myosuroides (ALOMY). Description: Pre-emergence biological efficacy (percentage damage). It is filed as in vivo. Particulars: Alopecurus myosuroides, 312 h, dose 1,000 g/ha, evaluated after 13 days, 100=total damage, 0=no damage. The gist of the method:
(§1)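 Percentage damage (100 = total, 0 = none) was assessed 13 days after treatment. Compound was sprayed at a final dose of 250 or 1000 g/ha onto soil sown one day earlier, with plants kept under controlled glasshouse conditions (24/16 °C, 14 h light, 65% humidity).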

Series [2] concerns Echinochloa crus-galli (ECHCG). The description is as above. Conditions: Echinochloa crus-galli, 312 h, dose 1,000 g/ha, evaluated after 13 days, 100=total damage, 0=no damage. The series is classed as in vivo. The gist of the method: as §1
Series [3] relates to Ipomea hederaceae (IPOHE). The description is as above. The series is classed as in vivo. Particulars: Ipomoea hederacea, 312 h, dose 1,000 g/ha, evaluated after 13 days, 100=total damage, 0=no damage. The gist of the method: as §1
Series [4] has as its system Setaria faberi (SETFA). Described as above. The series is classed as in vivo. Conditions: Setaria faberi, 312 h, dose 1,000 g/ha, evaluated after 13 days, 100=total damage, 0=no damage. The gist of the method: as §1
For series [5], the system named is Solanum nigrum (SOLNI). The description is as above. The series is classed as in vivo. Conditions: Solanum nigrum, 312 h, dose 1,000 g/ha, evaluated after 13 days, 100=total damage, 0=no damage. The gist of the method:
as §1

For series [6], the system named is Amaranthus retoflexus (AMARE). The series is described as above. It is filed as in vivo. Particulars: Amaranthus retroflexus, 312 h, dose 1,000 g/ha, evaluated after 13 days, 100=total damage, 0=no damage. The gist of the method: as §1
Series [7] relates to Alopecurus myosuroides (ALOMY). As to the kind of experiment: Post-emergence biological efficacy (percentage damage). The series is classed as in vivo. Particulars: Alopecurus myosuroides, 312 h, dose 1,000 g/ha, evaluated after 13 days, 100=total damage, 0=no damage. The gist of the method:
(§2)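 Percentage damage (0 no damage to 100 total) was assessed 13 days after spraying plants raised for 8 days in pots. Test compound was applied as an aqueous acetone/water (50:50) spray containing 0.5% Tween 20 to give 250 or 1000 g/ha.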

In series [8] the test system is Echinochloa crus-galli (ECHCG). The series is described as above. The series is classed as in vivo. Particulars: Echinochloa crus-galli, 312 h, dose 1,000 g/ha, evaluated after 13 days, 100=total damage, 0=no damage. The gist of the method: as §2
The test system of series [9] is Ipomea hederaceae (IPOHE). Described as above. Conditions: Ipomoea hederacea, 312 h, dose 1,000 g/ha, evaluated after 13 days, 100=total damage, 0=no damage. It is filed as in vivo. The gist of the method:
as §2

For series [10], the system named is Setaria faberi (SETFA). The series is described as above. It is filed as in vivo. Particulars: Setaria faberi, 312 h, dose 1,000 g/ha, evaluated after 13 days, 100=total damage, 0=no damage. The gist of the method: as §2
In series [11] the test system is Solanum nigrum (SOLNI). Described as above. The series is classed as in vivo. Particulars: Solanum nigrum, 312 h, dose 1,000 g/ha, evaluated after 13 days, 100=total damage, 0=no damage. The gist of the method: as §2
Series [12] relates to Amaranthus retoflexus (AMARE). The description is as above. Conditions: Amaranthus retroflexus, 312 h, dose 1,000 g/ha, evaluated after 13 days, 100=total damage, 0=no damage. The series is classed as in vivo. The gist of the method: as §2

The term pest or weed control denotes the degree to which the test organism was suppressed or injured, in per cent. The low end stands for a weak effect, the high end for a strong effect. As a reminder, the melting point is the temperature, or range, at which the solid turns liquid. The compound `C=Cc1c(OC)nc(-c2ccc(Cl)c(OC)c2F)nc1C(=O)OC` [Compound 27-398, 2-(4-chloro-2-fluoro-3-methoxyphenyl)-5-ethenyl-4-methoxy-6-methoxycarbonyl-pyrimidine] gave a melting point of 107 to 108 °C. The compound further came in with a pest or weed control at 1000 g/ha in series [1] of 0%. Also, the pest or weed control at 1000 g/ha in series [2] came to 0%. In series [3], the pest or weed control at 1000 g/ha is 0%. In addition, the pest or weed control at 1000 g/ha in series [4] worked out at 0%. This compound came in with a pest or weed control at 1000 g/ha in [5] of 0%. The compound further yielded a pest or weed control at 1000 g/ha in series [6] of 0%. In series [7], the pest or weed control at 1000 g/ha amounted to 0%. In series [8], this compound gave a pest or weed control at 1000 g/ha of 0%. Further, the pest or weed control at 1000 g/ha in series [9] amounted to 40%. The same compound returned a pest or weed control at 1000 g/ha in series [10] of 0%. The pest or weed control at 1000 g/ha in series [11] worked out at 20%. The same compound showed a pest or weed control at 1000 g/ha in series [12] of 0%.
Compound `C=Cc1c(N)nc(-c2ccc(C)cc2)nc1C(=O)OC` [Compound 36-61, 4-amino-5-ethenyl-6-methoxycarbonyl-2-(4-methylphenyl)-pyrimidine] registered a melting point of 122 to 123 °C. The pest or weed control at 1000 g/ha in [1] was 70%. For the same compound, the pest or weed control at 1000 g/ha in series [2] was 90%. The same compound returned a pest or weed control at 1000 g/ha in [3] of 100%. Moreover, in series [4], the pest or weed control at 1000 g/ha was found to be 80%. Further, in [5], the pest or weed control at 1000 g/ha is 100%. In series [6], this compound gave a pest or weed control at 1000 g/ha of 100%. In addition, in series [7], the pest or weed control at 1000 g/ha amounted to 70%. Further, the pest or weed control at 1000 g/ha in [8] stood at 90%. This compound gave a pest or weed control at 1000 g/ha in [9] of 90%. The compound further had a pest or weed control at 1000 g/ha in series [10] of 80%. This compound returned a pest or weed control at 1000 g/ha in series [11] of 80%. Besides, in [12], the pest or weed control at 1000 g/ha was 100%.
For the compound `COC(=O)c1nc(-c2ccc(Cl)c(N(C)C)c2F)nc(N)c1C1CC1` [Compound 33-58, 4-amino-2-(4-chloro-3-dimethylamino-2-fluorophenyl)-5-cyclopropyl-6-methoxycarbonylpyrimidine], the melting point was 156 to 158 °C. In [1], this compound had a pest or weed control at 1000 g/ha of 0%. Also, in series [2], the pest or weed control at 1000 g/ha came to 0%. The compound also displayed a pest or weed control at 1000 g/ha in series [3] of 0%. The compound further came in with a pest or weed control at 1000 g/ha in series [4] of 0%. Further, in [5], the pest or weed control at 1000 g/ha was 0%. In [6], this compound gave a pest or weed control at 1000 g/ha of 0%. In [7], this compound displayed a pest or weed control at 1000 g/ha of 10%. Further, the pest or weed control at 1000 g/ha in series [8] is 10%. The pest or weed control at 1000 g/ha in series [9] was 0%. Moreover, the pest or weed control at 1000 g/ha in series [10] was determined as 60%. This compound also displayed a pest or weed control at 1000 g/ha in series [11] of 10%. In [12], the pest or weed control at 1000 g/ha is 10%.
Consider `C=Cc1c(C(=O)OC)nc(C2CC2)nc1[S+](C)[O-]` (centres unmarked) [Compound 2-401, 2-cyclopropyl-5-ethenyl-6-methoxycarbonyl-4-methylsulphinyl-pyrimidine], for which the melting point lay within 74 to 75 °C. In series [1], this compound registered a pest or weed control at 1000 g/ha of 0%. In [2], this compound had a pest or weed control at 1000 g/ha of 0%. This compound showed a pest or weed control at 1000 g/ha in [3] of 70%. The pest or weed control at 1000 g/ha in series [4] came out at 0%. For the same compound, the pest or weed control at 1000 g/ha in series [5] worked out at 10%. Besides, the pest or weed control at 1000 g/ha in series [6] was 70%. In addition, the pest or weed control at 1000 g/ha in series [7] was 0%. The same compound showed a pest or weed control at 1000 g/ha in series [8] of 0%. The compound further returned a pest or weed control at 1000 g/ha in series [9] of 70%. In series [10], the pest or weed control at 1000 g/ha was 0%. The pest or weed control at 1000 g/ha in series [11] was found to be 80%. Further, the pest or weed control at 1000 g/ha in [12] was determined as 70%.
Compound `COC(=O)c1nc(C2CC2)nc(N)c1C` [Compound 2-41] returned a melting point of 152 to 153 °C. The pest or weed control at 1000 g/ha in series [1] was found to be 20%. The compound further had a pest or weed control at 1000 g/ha in series [2] of 20%. Moreover, in series [3], the pest or weed control at 1000 g/ha amounted to 60%. The compound also showed a pest or weed control at 1000 g/ha in series [4] of 30%. This compound yielded a pest or weed control at 1000 g/ha in [5] of 50%. The pest or weed control at 1000 g/ha in series [6] came to 70%. For the same compound, the pest or weed control at 1000 g/ha in series [7] came out at 40%. The compound also returned a pest or weed control at 1000 g/ha in series [8] of 60%. The pest or weed control at 1000 g/ha in series [9] was determined as 100%. Also, the pest or weed control at 1000 g/ha in series [10] was 80%. This compound returned a pest or weed control at 1000 g/ha in series [11] of 90%. The pest or weed control at 1000 g/ha in series [12] was determined as 100%.
As for `C=Cc1c(N)nc(-c2ccc(Cl)cc2F)nc1C(=O)OC` [Compound 15-61, 4-Amino-2-(4-chloro-2-fluorophenyl)-5-ethenyl-6-methoxycarbonyl-pyrimidine], the pest or weed control at 1000 g/ha in [1] was 80%; in series [2], 70%; in series [3], 100%; in series [4] it was 70%; in [5], 100%; in series [6] it was 100%. Moreover, the pest or weed control at 1000 g/ha in series [7] is 90%; in series [8], 70%; in series [9], 80%; in [10], 70%; in [11], 100%; in series [12] it was 100%.
Regarding `C=Cc1c(N)nc(-c2ccc3c(c2)OCCO3)nc1C(=O)OC` [Compound 71-61, 4-Amino-5-ethenyl-2-(3,4-ethylenedioxy-phenyl)-6-methoxycarbonyl-pyrimidine], the pest or weed control at 1000 g/ha in series [1] was 10%; in series [2], 20%; in [3] it was 0%; in series [4], 0%; in [5], 40%; in series [6], 0%. The pest or weed control at 1000 g/ha in series [7] stood at 0%; in [8], 30%; in series [9], 40%; in series [10] it was 0%; in series [11], 60%; in series [12] it was 20%.
Turning to `C=Cc1c(N)nc(-c2ccc(Cl)c(F)c2)nc1C(=O)OC` [Compound 19-61, 4-Amino-2-(4-chloro-3-fluorophenyl)-5-ethenyl-6-methoxycarbonyl-pyrimidine], the pest or weed control at 1000 g/ha in series [1] worked out at 50%; in series [2], 70%; in series [3] it was 100%; in [4], 30%; in [5], 100%; in series [6], 100%. Besides, the pest or weed control at 1000 g/ha in series [7] stood at 40%; in series [8] it was 60%; in series [9] it was 100%; in [10], 40%; in series [11] it was 100%; in series [12], 100%.
As to `C=C(OCC)c1ccc(-c2nc(N)c(C(C)=O)c(C(=O)OC)n2)c(F)c1OC` [Compound 66-53, 4-amino-2-(4-[1-ethoxyethenyl]-2-fluoro-3-methoxy-phenyl)-6-methoxycarbonyl-5-methylcarbonyl-pyrimidine], the pest or weed control at 1000 g/ha in [1] turned out to be 0%; in series [2], 0%; in series [3], 30%; in [4], 0%; in series [5], 20%; in series [6], 10%. Further, the pest or weed control at 1000 g/ha in [7] was 0%; in series [8], 0%; in series [9] it was 30%; in series [10], 10%; in series [11], 60%; in series [12] it was 20%.
Regarding `C=Cc1c(N)nc(-c2ccc3ccccc3c2)nc1C(=O)OC` [Compound 73-61, 4-Amino-5-ethenyl-6-methoxycarbonyl-2-(2-naphthyl)-pyrimidine], the pest or weed control at 1000 g/ha in [1], in series [2], in series [3], in series [4], in series [5] and in [6] was 0% in each case. In addition, the pest or weed control at 1000 g/ha is 0% in [7]; 0% in series [8]; 0% in series [9]; 0% in series [10]; 30% in series [11]; 20% in series [12].
